This is an account of results in patent publication US11261136B2, “Triarylmethane compounds for controlling enzyme-induced urea decomposition” (priority 2017, dated 2022).

Series [1] has as its target urease (Canavalia ensiformis, UniProt P07374). The conditions noted are these: in solution; cited from earlier work.
Series [2] deals with urease enzyme. Nature of the series: Nitrogen volatilization of 50:50 urea:water solutions (gas trap and FIA instrument). An excerpt:
Various concentrations of Catechol Violet paired with polymer, were examined utilizing the gas trap and FIA instrument at Alltech (Sparta, Ill.). Treatment replicates are shown across the horizontal axis, and percent Nitrogen concentration (expressed as ammonia that has volatilized) is given in the vertical axis. For FIGS. 1, 2, 4A, and 4B, the treatments proceed in number order along the horizontal axis, moving from left to right, with the left being the lowest treatment number and the right being the highest treatment number. For FIGS. 3A and 3B, the treatments proceed as described above, with the exception of treatment 7, which is the farthest right along the horizontal axis. Briefly, the lower the amount of volatilized nitrogen, the greater the inhibition of the activity of the urease enzyme.
Each set of treatments includes:
• 1) An untreated control (50:50 urea:water, w/w). […] Concentrations and details of each treatment are given in the following paragraphs. 7.1—Three Day Results of Catechol Violet Solutions (FIG. 1)

Series [3] concerns urease enzyme. Particulars: industry standard, added at 0.2% v/v of the urea solution; cited from earlier work.
For series [4] the following is noted: cited from earlier work.
The conditions of series [5]: used with UAN; 87 trials and 487 comparisons; cited from earlier work.
Series [6] has as its target T1, jackbean urease enzyme (Canavalia ensiformis, UniProt P07374).
T1 construct: purchased
The series is described as follows: biochemical. Particulars: pH 5. The method, then: (§1) An aqueous solution containing 0.105 moles/L of monosodium phosphate was adjusted to a pH of 5.0 with sodium hydroxide. Suitable quantities of a solution of 3,3′,4-trihydroxysuchsone-2″-sulfonic acid were added, with stirring, to 19.0 mL of the above phosphate solution, to give a series of mixtures having the following concentrations of sulfonic acid: 100, 250, 500, 750, 1000, 2000, and 5000 ppb. Next, commercial jackbean urease enzyme solution of known concentration was added to each mixture to provide 40 units of enzyme per 50 mL of the mixture. The mixtures were allowed to stand for 5 hours in closed glass containers at 20° C., followed by the addition to each mixture of 1.00 mL of freshly prepared urea solution (2.00 moles/L), to give an overall reaction concentration of 0.100 moles/L of both urea and phosphate. These mixtures, containing phosphate, sulfonic acid, urease, and urea were deemed A mixtures.
(§2) Simultaneously, two more solutions were identically prepared, namely an enzyme-free control where both 3,3′,4-trihydroxysuchsone-2″-sulfonic acid and enzyme are omitted (mixture B), and an enzyme control where enzyme is present without any 3,3′,4-trihydroxysuchsone-2″-sulfonic acid (mixture C). Solution urea concentrations were measured immediately in each of the mixtures, and again after a 120-minute interval.
(§3) For purposes of these tests, the C mixture containing urease and urea was deemed to provide 0% inhibition, whereas the B mixture containing urea without urease was deemed to provide 100% inhibition.

The target of series [7] is T1, jackbean urease enzyme. The series is described as follows: Jackbean urease inhibition, Example 1 repeated with buffer at pH 7. In kind it is biochemical. The method, then: as §1, §2, §3
Example 1 was repeated, but with the addition of a buffer to maintain a pH of 7.0 in all of the A, B, and C mixtures. The A mixtures contained the following amounts of the 3,3′,4-trihydroxysuchsone-2″-sulfonic acid: 100, 250, 500, 750, and 1000 ppb. It is known in the art that urease enzyme activity is greater and more difficult to inhibit at neutral pH, as compared with an acid pH, and that the much lower treatment levels would give less urease inhibition.

Read-outs that look alike come from different tables or passages of the source.

T1 sequence (P07374 whole entry, looked up): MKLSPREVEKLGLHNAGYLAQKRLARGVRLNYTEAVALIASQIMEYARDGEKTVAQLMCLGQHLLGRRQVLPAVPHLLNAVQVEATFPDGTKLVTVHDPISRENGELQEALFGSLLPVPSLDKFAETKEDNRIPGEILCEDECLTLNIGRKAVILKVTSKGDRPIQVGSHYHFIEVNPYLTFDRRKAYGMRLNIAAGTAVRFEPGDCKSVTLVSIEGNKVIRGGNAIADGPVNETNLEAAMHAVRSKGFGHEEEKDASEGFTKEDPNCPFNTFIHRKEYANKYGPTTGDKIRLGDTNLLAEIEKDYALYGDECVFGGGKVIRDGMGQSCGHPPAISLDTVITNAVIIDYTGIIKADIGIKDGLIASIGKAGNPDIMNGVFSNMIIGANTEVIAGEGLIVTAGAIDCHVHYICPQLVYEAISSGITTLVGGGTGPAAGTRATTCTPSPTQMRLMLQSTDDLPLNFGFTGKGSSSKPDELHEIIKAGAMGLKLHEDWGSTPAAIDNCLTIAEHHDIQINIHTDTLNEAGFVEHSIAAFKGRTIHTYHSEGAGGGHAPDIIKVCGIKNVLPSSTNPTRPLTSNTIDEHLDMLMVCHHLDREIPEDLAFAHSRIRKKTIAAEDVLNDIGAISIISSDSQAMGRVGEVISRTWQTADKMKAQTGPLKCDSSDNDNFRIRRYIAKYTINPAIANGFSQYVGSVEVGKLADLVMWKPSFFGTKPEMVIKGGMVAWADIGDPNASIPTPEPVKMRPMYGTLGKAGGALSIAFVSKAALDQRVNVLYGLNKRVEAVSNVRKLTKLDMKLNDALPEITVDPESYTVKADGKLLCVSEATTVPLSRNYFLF
urease, sequence (P07374 whole entry, looked up): as above

For the compound `O=C1C=CC(=O)C=C1` [benzoquinone], the “concentration at which effective urease inhibitors” value in series [1] is given as “about 1 ppm by weight”.
For `CCCCNP(N)(N)=S` [NBPT, N-(n-butyl) thiophosphoric triamide], the “urease activity and N-loss through volatilization (FIGS. 3A and 3B)” value in series [2] (NBPT (Agrotain Ultra) 0.2% v/v, three and seven day test) was “inhibits urease activity and N-loss through volatilization”. Further, the “7-day N-loss via volatilization (FIG. 4B)” value in series [2] (after 7 days, compared to untreated urea solution) is given as “continue to limit N-loss via volatilization when compared to the untreated urea solution”. The “inhibition of N-volatilization (historical)” value in series [3] is recorded as “near-total inhibition of N-volatilization”. In addition, the “NBPT content lost on storage” value in series [4] (after six months) is “over 99%”. Besides, the “NBPT content lost on storage” value in series [4] (storage at 25° C. for three months) is recorded as “up to 40%”. In series [5], the “average improvement in yield” value is reported as “about 1.6 bushels/acre” and the “trials resulting in yield losses” value is listed as “about 40%”.
As to `Oc1ccccc1O` [catechol], in series [1], the “concentration at which effective urease inhibitors” value is recorded as “about 1 ppm by weight”.
A word on the inhibition: it is the relative decrease from the control value, in per cent. A low value points to a response near the control. In series [6], `O=C1C=C/C(=C(/c2ccc(O)c(O)c2)c2ccccc2S(=O)(=O)O)C=C1O` [3,3′,4-trihydroxysuchsone-2″-sulfonic acid] showed an inhibition at 0.1 ppm of 7%, an inhibition at 0.25 ppm of 22%, an inhibition at 0.5 ppm of 25% and an inhibition at 0.75 ppm of 45%. In series [6], this compound had an inhibition at 1 ppm of 61%, an inhibition at 2 ppm of 76% and an inhibition at 5 ppm of 88%. In series [7], this compound came in with an inhibition at 0.1 ppm of 2%, an inhibition at 0.25 ppm of 30%, an inhibition at 0.5 ppm of 41% and an inhibition at 0.75 ppm of 46%. Also, the inhibition at 1 ppm in series [7] stood at 50%.
